The values below come from PubChem BioAssay AID1645866 (Buhrlage Lab, Dana-Farber Cancer Institute and Novartis …, 2021).

pIC50: −log10 of the molar value. Calls of active or inactive are those of the source.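 How the source made its calls: active means in confirmatory dose-response testing, peak deubiquitinase inhibition of 30% or more; inactive means the rest.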

This test deals with Ubiquitin carboxyl-terminal hydrolase 28 (Homo sapiens) (UniProt Q96RU2). The experiment in a line: Concentration-response biochemical assay confirming initial hits as inhibitors of ubiquitin-specific protease 28 (AID 1645866). To be noted: purified USP28, ubiquitin-rhodamine fluorescence, 30 min.
Sequence of Ubiquitin carboxyl-terminal hydrolase 28 (Homo sapiens) (Q96RU2 whole entry, looked up): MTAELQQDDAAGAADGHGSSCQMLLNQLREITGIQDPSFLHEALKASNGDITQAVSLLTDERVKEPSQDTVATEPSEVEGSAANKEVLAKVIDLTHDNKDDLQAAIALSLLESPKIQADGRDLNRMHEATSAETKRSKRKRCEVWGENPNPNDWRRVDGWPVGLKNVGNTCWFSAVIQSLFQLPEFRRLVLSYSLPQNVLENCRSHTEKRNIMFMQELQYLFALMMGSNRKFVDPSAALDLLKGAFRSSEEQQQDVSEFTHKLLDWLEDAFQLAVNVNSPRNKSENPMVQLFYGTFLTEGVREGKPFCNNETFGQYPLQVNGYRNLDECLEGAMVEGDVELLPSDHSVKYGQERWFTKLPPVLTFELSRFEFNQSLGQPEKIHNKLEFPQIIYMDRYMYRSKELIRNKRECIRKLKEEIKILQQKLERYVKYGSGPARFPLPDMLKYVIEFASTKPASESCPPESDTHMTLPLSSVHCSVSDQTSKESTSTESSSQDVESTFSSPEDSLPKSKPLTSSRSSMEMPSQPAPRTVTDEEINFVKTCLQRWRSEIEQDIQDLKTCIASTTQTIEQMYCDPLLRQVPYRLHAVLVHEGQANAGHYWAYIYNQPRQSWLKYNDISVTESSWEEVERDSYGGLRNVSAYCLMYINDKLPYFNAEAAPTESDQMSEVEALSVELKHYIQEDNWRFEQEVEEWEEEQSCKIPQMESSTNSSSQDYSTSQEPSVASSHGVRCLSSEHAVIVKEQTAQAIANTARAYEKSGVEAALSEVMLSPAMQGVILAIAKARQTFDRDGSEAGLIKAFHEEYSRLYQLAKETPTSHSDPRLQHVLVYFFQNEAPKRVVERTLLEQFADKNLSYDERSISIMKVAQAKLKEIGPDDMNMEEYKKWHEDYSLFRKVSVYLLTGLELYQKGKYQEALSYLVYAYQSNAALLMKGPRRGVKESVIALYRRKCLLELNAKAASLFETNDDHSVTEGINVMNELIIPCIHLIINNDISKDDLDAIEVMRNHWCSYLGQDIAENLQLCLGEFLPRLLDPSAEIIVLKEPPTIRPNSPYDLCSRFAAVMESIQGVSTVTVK

Consider `Cc1cc(CSc2ncccc2C(=O)Nc2ccnn2Cc2cccnc2)no1`, for which the IC50 (in general, the concentration at which inhibition is half-maximal) is > 50 µM (inactive). For `COc1ccc(-c2cc3nc([C@@H](C)NC(=O)c4ccc5c(c4)OCO5)nn3cn2)cc1`, the pIC50 (as a rule, the IC50 on a negative log10 scale, so that one unit is a factor of ten) is 4.45. In the case of `Cc1c(C(=O)c2ccccc2)c2ccccn2c1CCc1ccccn1`, the IC50 was > 50 µM (inactive). Take `CCc1nc(SCC(=O)Nc2ccccc2Cl)c2oc3ccccc3c2n1`: the pIC50 was 6.43. Turning to `CCN(C(=O)c1cc2c(Cl)nc3ccccc3c2s1)c1ccccc1F`, the IC50 was > 50 µM (inactive).

For the compound `CSc1cccc(NC(=O)CCc2ccc3nc(NC(C)=O)sc3c2)c1`, the IC50 is > 50 µM (inactive). `Cc1cc2nc(-c3ccc(SCc4ccccn4)nc3)[nH]c2cc1C`: the pIC50 was 4.90. For `COc1ccc(NC(=O)c2[nH]nc3c2COc2ccccc2-3)c(OC)c1`, the pIC50 was 5.16. As for `Cn1cc2cccc(NC(=O)c3ccc(F)cc3)c2n1`, the IC50 is > 50 µM (inactive). Regarding `COC(=O)C1C(c2ccc(Cl)cc2Cl)C2(C(=O)c3ccccc3C2=O)C2C=Cc3ccccc3N12` (configuration not stated), the IC50 is > 50 µM (inactive). Regarding `O=C(CCCCn1c(=O)[nH]c2ccccc2c1=O)Nc1cccc(Cl)c1`, the pIC50 was 4.78. For `CCn1cnc2c(-c3ccccc3)cn(CC(=O)NCc3ccc4c(c3)OCO4)c2c1=O`, the pIC50 is 4.98.

Take `C/C1=C\CCC(C)C(O)CC(O)C(C)C(O)CCC(C)C(O)CC2(O)OC(CC(OC(=O)CC(=O)O)CC(O)CC(O)CC(O)C(C)C(O)/C=C/C(C)C(C(C)CCCCCCCCN=C(N)N)OC1=O)CC(O)C2O` (configuration not stated): the negative logarithm of the IC50 (pIC50) is 5.32.

On to `Cc1nc(SCC(=O)Nc2cc(Cl)ccc2C)c2oc3ccccc3c2n1`, for which the pIC50 was 5.69.

On to `Cc1ccc(C)c(NC(=O)CCc2nc(CSc3nc4ccccc4o3)no2)c1`, for which the pIC50 is 4.87. Consider `Cc1ccc(C(=O)NCc2ccc(C(=O)Nc3ccc(C)c(C)c3)o2)cc1`, for which the pIC50 was 4.55. `COc1ccc(NC(=O)CN2C(=O)c3ccccc3Sc3ccc(C(=O)N4CCCC4)cc32)c(OC)c1`: the pIC50 was 4.72. Consider `COc1ccc(N(CC(=O)NC2CCCCC2)C(=O)c2ccc(-c3ccccc3)[nH]2)cc1OC`, for which the pIC50 is 5.38.

Take `CC(=O)c1sc(NC(=O)/C=C/c2ccccc2)nc1-c1ccccc1`: the pIC50 was 4.73.

For `CC1(C)Cc2c(sc3nc(Cc4ccccc4)nc(SCC(=O)Nc4ccccc4)c23)CO1`, the pIC50 is 5.62.

Regarding `COc1ccc(-c2nonc2NC(=O)C(c2ccccc2)c2ccccc2)cc1OC`, the IC50 is > 50 µM (inactive). For `O=C(Nc1ccc2c(c1)OCCO2)c1cc(CN2CCCC2)on1`, the pIC50 was 5.01. As to `CN1C(=O)[C@]23CC4=CC=C[C@H](O)[C@H]4N2C(=O)[C@@]1(CO)SS3`, the IC50 was > 50 µM (inactive). With `COc1ccc(N(CC(=O)Nc2cccc(F)c2)S(=O)(=O)c2ccc(OC)c(OC)c2)cc1`, the pIC50 was 4.72. Turning to `O=C(Cn1nnc(-c2ccc(F)cc2)n1)NCCc1ccccc1`, the pIC50 was 4.35. For `CC(=O)c1ccc(NC(=O)CSc2nc(-c3ccccc3)nc3c2COC(C)(C)C3)cc1`, the pIC50 is 5.39.

Take `COc1ccc(NC(=O)Nc2cccc(-c3nnc(-c4ccccc4)o3)c2)cc1OC`: the pIC50 was 4.66. Regarding `Cc1ccc(CN2CCCn3nc(C(=O)NCc4ccccc4C)cc3C2=O)cc1`, the pIC50 is 4.34. For `CC(C)c1ccc(NC(=O)COC(=O)c2ccc3[nH]c4c(c3c2)CCCC4)cc1`, the pIC50 is 4.50. For `CC(C)N1CC2CN(Cc3ccc(Cl)cc3)CCN2Cc2ccccc21` (configuration not stated), the IC50 was > 50 µM (inactive). Turning to `O=C(Cc1nnc2c(-c3nc(C4CC4)no3)cccn12)Nc1ccccc1`, the pIC50 was 4.78. As to `COc1ccc(NC(=O)CS(=O)(=O)c2[nH]c(-c3ccc(C)cc3)nc2-c2ccccc2)cc1Cl`, the pIC50 is 4.51. As to `Cc1noc(-c2cccn(Cc3cccc(C(F)(F)F)c3)c2=O)n1`, the pIC50 was 5.09. Turning to `Cc1ncc(CO)c2c1Oc1nc(-c3cccc(Cl)c3)nc(SCC(=O)N3CCCCC3)c1C2`, the IC50 was > 50 µM (inactive).

`CNC(=O)CC1NC(=O)c2csc(n2)-c2ccc(-c3nc(C4=NC(C(=O)N5CCCC5C(N)=O)CO4)cs3)nc2-c2csc(n2)-c2csc(n2)C(C(O)c2ccccc2)NC(=O)CNC(=O)c2nc(sc2COC)C(C(C)C)NC(=O)c2nc1sc2C` (configuration not stated): the pIC50 is 4.94. With `O=C(c1cnccn1)N1CCc2[nH]c3ccc(F)cc3c2C1`, the IC50 was > 50 µM (inactive). For `COc1ccccc1S(=O)(=O)N1CC[C@@H]2CN(C)[C@@H]2C1`, the negative-log IC50 (pIC50) is 4.45. Turning to `CCc1nnc(NC(=O)c2nnn(-c3ccccc3Cl)c2C)s1`, the pIC50 was 4.54.

Regarding `CN(C)c1cccc(C(=O)Nc2cc(-c3cccnc3)no2)c1`, the pIC50 is 4.87.

With `Cc1ccc(Cn2nnc(C(=O)NCc3ccco3)c2-n2cccc2)cc1`, the pIC50 is 5.19. As for `CC1=C(c2ccc(C)c(C)c2)S(=O)(=O)NC1=NCC(=O)NCCCc1ccccc1`, the pIC50 is 4.59. In the case of `COc1ccc(NC(=O)c2nnn(-c3ccccc3)c2C)cc1OC`, the pIC50 is 4.94. On the same count and under the same terms, the figure for `COc1ccc(CCNC(=O)CCCn2c(=O)c3ccccc3n(CC(=O)OCc3ccccc3)c2=O)cc1OC` is 4.80. As for `COc1ccc(C(C(=O)NCc2ccccc2)N(C(=O)CCN2CCc3ccccc32)c2ccc(C)c(C)c2)cc1` (configuration not stated), the IC50 was > 50 µM (inactive). For the compound `COc1ccc(S(=O)(=O)N2CCN3Cc4ccccc4N(C)CC3C2)cc1` (configuration not stated), the IC50 was > 50 µM (inactive). In the case of `O=C(Nc1ccc2c(c1)OCO2)c1[nH]nc2c1CCc1ccccc1-2`, the pIC50 was 5.10. Consider `CCn1ccc2c(cc(C(=O)Nc3cccc(OC)c3)n2C)c1=O`, for which the pIC50 is 5.55.

`COc1ccc(-c2cc(N3CCC(NC(=O)c4ccccc4)C3)n[nH]2)cc1` (configuration not stated): the pIC50 is 4.80. With `O=C(c1ccc2ncccc2c1)N1CCC2(C1)Nc1cccnc1NC2=NC1CCCC1` (configuration not stated), the IC50 is > 50 µM (inactive). With `O=C(NCCCc1nc2ccccc2n1Cc1c(Cl)cccc1Cl)c1ccco1`, the pIC50 is 4.60. As to `COc1ccc(/C=C/C(=O)N2CCc3ccccc32)cc1S(=O)(=O)N1CCOCC1`, the IC50 is > 50 µM (inactive).

With `Fc1ccc(Cc2nc(-c3ccc4nncn4c3)no2)cc1`, the pIC50 is 4.82. For the compound `CCN1C(SCc2ccc(F)cc2)=NS(=O)(=O)c2ccccc21`, the pIC50 is 4.57. `c1ccc2c(c1)ccc1nnc(-c3ccc4c(c3)OCO4)n12`: the IC50 is > 50 µM (inactive).

For `CCCc1c(C(=O)O)c(O[C@H]2O[C@H](C)[C@@H](OC)[C@H](OC)[C@@H]2OC)cc2cc3c(c(O)c12)C(=O)c1c(O)cc(O[C@@H]2O[C@@H](C)[C@H](O[C@H]4O[C@H](C)[C@@H](OC)[C@H](OC)[C@@H]4O)[C@@H](OC)[C@H]2O)cc1C3=O`, the IC50 was > 50 µM (inactive). Regarding `COc1ccc(C(=O)C2CC(=O)Nc3c2c(C)nn3-c2ccc(Br)cc2)cc1` (configuration not stated), the pIC50 was 4.70. Take `O=c1c2ccccc2ncn1C1CCN(S(=O)(=O)c2ccccc2F)CC1`: the pIC50 is 4.51.

Regarding `Nc1nc(-c2ccc[nH]2)cs1`, the IC50 was > 50 µM (inactive). For `CCn1cc(-c2nc(-c3ccccc3)no2)c(=O)c2cc(F)ccc21`, the pIC50 was 5.12.

For `CCOC(=O)c1ccc(NC(=O)Cn2c(=O)n(CC(=O)NCCc3ccc(OC)c(OC)c3)c(=O)c3sccc32)cc1`, the pIC50 was 5.71.

For `O=C(c1cc(-c2ccc(Cl)cc2)n[nH]1)N1CCN(C(=O)c2ccco2)CC1`, the pIC50 was 4.59. Take `C/C1=C/CC(O)/C=C/C(C)C(O)C(C)/C=C(\C)C(=O)c2c(O)c(C)cc3c2C(=O)C(Cl)=C(NC(=O)\C=C/C=C/C=C\C(C)C(O)CC1=O)C3=O` (configuration not stated): the negative-log IC50 (pIC50) was 4.50. In the case of `COc1ccccc1CNC(=O)c1c(O)c2cnn(-c3cccc(C)c3)c2[nH]c1=O`, the pIC50 was 5.03. As to `Cc1nn(CC(=O)Nc2ccc(Br)c3cccnc23)c(=O)c2ccccc12`, the pIC50 was 4.67. For the compound `CCCCNc1nc2c(-c3ccccc3)nnn2c2ccccc12`, the pIC50 was 5.18. Turning to `COc1cc(Cl)ccc1C(=O)Nc1cccc(-n2cnnn2)c1C`, the pIC50 was 4.95. `c1ccc2c(c1)CCc1c-2nc2ccccc2c1N1CCOCC1`: the IC50 was > 50 µM (inactive).

For the compound `O=C(Cn1cc(C(=O)C2CC2)c2ccccc21)NCc1ccc2c(c1)OCO2`, the pIC50 is 4.60.

With `Cc1cccc(C)c1NC(=O)Cn1c(=O)n(CCCCC(=O)NCc2ccc3c(c2)OCO3)c(=O)c2ccccc21`, the pIC50 is 5.73. With `COc1cnc(-c2ccccn2)nc1Sc1ccccc1Cl`, the pIC50 was 4.96. `COc1ccc(NC(=O)c2nnn(-c3cccc(C)c3)c2C)cc1`: the pIC50 was 4.58. Consider `COc1ccc(S(=O)(=O)N(C)Cc2cccs2)cc1OC`, for which the pIC50 was 4.76. For the compound `CCOC(=O)N1CCN(S(=O)(=O)c2ccc(C(=O)Nc3ccc(Br)cc3)cc2)CC1`, the pIC50 was 4.74. On to `Cn1c(-c2nnc(SCC(=O)Nc3ccccc3F)o2)cc2ccccc21`, for which the pIC50 is 4.75.

Consider `O=S(=O)(Cc1nnc(-c2ccccc2C(F)(F)F)o1)c1ccc(Cl)cc1`, for which the IC50 is > 50 µM (inactive). Take `COc1ccccc1NC(=O)c1cc2c(C)nn(Cc3ccccc3)c2s1`: the pIC50 is 4.42. Regarding `Cc1ccc(CSC2=NS(=O)(=O)c3ccccc3N2)cc1`, the pIC50 was 4.79. For the compound `COc1ccc(CN=C2NS(=O)(=O)C(c3ccc(F)cc3)=C2C)cc1OC`, the pIC50 was 4.64.

In the case of `COc1ccc(-c2cnnn2-c2ccc(NC(=O)c3c(F)cccc3F)cc2)cc1OC`, the IC50 is > 50 µM (inactive).

Take `O=C(c1ccco1)N1CCN=C1SCc1ccccc1F`: the pIC50 is 5.01. Regarding `Cc1nc(C(=O)NC2(O)C(=O)c3ccccc3C2=O)cs1`, the pIC50 is 4.85. As to `COc1ccccc1CNC(=O)c1ccc(CSc2nc3ccncc3n2Cc2ccccc2)cc1`, the pIC50 is 4.51. For `COc1cccc(CCNC(=O)CCn2c(=O)c(C)nc3cc(C)c(C)cc32)c1`, the IC50 was > 50 µM (inactive). Regarding `O=c1c2cnc(N3CCCCC3)nc2ccn1CCc1ccccc1`, the pIC50 was 5.26. With `COc1ccc(OC)c(NC(=O)c2cc(Cl)ccc2OC)c1`, the pIC50 was 5.78. On to `CC(=O)N1CCc2cc(S(=O)(=O)NC(Cc3ccccc3)C(=O)Nc3cccc(Cl)c3C)ccc21` (configuration not stated), for which the pIC50 is 5.02. Turning to `O=C(NCc1ccco1)c1ccc2c(c1)N(Cc1cccc(F)c1)C(=O)c1ccccc1S2`, the IC50 was > 50 µM (inactive).
